Data as given in ChEMBL document CHEMBL1152560, “Substituted 2-arylbenzothiazoles as kinase inhibitors: hit-to-lead optimization” (Bioorg Med Chem, 2009).

Legend:
[1] = biological target: Receptor tyrosine-protein kinase erbB-2 (Homo sapiens, UniProt P04626); assay: Residual activity of ERBB2 at 0.1 uM by microplate scintillation counting
[2] = biological target: T1, Serine/threonine-protein kinase Nek11 (Homo sapiens) (UniProt Q8NG66); assay: Residual activity of NEK11 at 1 uM by microplate scintillation counting
T1 sequence (whole entry): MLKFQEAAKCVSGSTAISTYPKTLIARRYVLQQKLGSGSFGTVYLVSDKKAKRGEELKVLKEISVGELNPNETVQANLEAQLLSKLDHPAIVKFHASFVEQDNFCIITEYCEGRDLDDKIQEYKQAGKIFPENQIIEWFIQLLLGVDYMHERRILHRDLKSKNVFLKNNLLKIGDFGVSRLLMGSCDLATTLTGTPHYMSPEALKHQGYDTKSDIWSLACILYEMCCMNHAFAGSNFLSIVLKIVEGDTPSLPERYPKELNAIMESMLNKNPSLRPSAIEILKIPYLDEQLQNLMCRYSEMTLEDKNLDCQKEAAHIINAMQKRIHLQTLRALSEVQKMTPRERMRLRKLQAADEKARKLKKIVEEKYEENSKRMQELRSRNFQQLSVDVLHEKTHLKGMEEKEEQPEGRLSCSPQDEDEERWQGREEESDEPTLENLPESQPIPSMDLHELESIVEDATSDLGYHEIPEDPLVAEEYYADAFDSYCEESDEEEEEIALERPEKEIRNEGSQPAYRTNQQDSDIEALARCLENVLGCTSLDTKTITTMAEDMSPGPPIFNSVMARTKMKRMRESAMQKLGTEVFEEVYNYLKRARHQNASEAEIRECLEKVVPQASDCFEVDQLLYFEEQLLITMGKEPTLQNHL

[3] = biological target: T2, Mitogen-activated protein kinase 12 (Homo sapiens) (UniProt P53778); assay: Residual activity of p38-gamma at 0.1 uM by microplate scintillation counting
T2 sequence (whole entry): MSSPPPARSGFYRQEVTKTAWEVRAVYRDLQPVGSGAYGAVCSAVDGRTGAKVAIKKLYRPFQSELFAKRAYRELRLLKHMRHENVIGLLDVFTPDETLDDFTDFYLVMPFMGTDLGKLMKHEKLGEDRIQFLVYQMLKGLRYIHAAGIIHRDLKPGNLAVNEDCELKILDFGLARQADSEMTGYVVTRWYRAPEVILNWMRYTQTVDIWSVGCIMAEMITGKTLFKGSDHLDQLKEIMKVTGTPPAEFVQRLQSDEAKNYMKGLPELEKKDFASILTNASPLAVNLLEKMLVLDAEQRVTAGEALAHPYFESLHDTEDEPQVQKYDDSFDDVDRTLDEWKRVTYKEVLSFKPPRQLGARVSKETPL

[4] = biological target: Serine/threonine-protein kinase PAK 5 (Homo sapiens) (UniProt Q9P286); assay: Residual activity of PAK7 at 1 uM by microplate scintillation counting
Serine/threonine-protein kinase PAK 5 (Homo sapiens), sequence (Q9P286 whole entry, looked up): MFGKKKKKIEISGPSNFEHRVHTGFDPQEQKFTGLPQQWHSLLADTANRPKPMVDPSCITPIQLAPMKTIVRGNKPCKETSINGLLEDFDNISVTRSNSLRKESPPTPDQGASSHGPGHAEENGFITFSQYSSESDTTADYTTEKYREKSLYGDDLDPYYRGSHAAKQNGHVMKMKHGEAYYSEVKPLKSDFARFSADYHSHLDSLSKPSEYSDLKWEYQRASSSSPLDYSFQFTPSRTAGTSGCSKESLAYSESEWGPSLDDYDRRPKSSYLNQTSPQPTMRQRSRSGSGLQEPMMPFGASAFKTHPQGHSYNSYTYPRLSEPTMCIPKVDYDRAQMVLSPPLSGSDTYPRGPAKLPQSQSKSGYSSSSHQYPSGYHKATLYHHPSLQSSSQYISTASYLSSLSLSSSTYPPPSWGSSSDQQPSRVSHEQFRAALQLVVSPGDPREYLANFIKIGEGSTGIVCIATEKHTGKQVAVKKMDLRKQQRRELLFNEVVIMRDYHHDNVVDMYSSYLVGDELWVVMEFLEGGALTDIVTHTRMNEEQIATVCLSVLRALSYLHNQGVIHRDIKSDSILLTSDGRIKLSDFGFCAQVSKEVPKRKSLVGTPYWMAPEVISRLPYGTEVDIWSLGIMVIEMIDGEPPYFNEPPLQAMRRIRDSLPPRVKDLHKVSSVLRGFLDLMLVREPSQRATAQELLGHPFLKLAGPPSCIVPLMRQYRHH

[5] = biological target: T3, Inhibitor of nuclear factor kappa-B kinase subunit alpha (Homo sapiens) (UniProt O15111); assay: Residual activity of IKKalpha at 1 uM by microplate scintillation counting
T3 sequence (whole entry): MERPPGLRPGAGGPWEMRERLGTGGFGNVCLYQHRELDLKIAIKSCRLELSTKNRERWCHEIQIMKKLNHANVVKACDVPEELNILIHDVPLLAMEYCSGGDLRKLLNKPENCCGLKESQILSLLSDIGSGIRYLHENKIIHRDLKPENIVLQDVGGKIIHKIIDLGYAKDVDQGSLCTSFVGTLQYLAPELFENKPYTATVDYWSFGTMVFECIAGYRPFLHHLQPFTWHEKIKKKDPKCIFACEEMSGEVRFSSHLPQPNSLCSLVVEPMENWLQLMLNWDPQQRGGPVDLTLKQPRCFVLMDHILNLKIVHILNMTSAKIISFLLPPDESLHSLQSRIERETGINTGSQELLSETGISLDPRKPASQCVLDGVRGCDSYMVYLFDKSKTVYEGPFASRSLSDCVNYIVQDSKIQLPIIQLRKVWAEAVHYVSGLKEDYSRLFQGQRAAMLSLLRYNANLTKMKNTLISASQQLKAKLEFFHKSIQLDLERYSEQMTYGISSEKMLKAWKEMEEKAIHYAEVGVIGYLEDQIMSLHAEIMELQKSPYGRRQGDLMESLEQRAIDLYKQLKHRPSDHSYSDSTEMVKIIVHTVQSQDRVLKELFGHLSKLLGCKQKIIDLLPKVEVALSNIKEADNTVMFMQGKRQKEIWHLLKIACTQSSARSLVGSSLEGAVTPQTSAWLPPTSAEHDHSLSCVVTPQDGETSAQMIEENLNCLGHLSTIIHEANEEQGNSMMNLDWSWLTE

[6] = biological target: T4, Tyrosine-protein kinase receptor TYRO3 (Homo sapiens) (UniProt Q06418); assay: Residual activity of TYRO3 at 1 uM by microplate scintillation counting
T4 sequence (whole entry): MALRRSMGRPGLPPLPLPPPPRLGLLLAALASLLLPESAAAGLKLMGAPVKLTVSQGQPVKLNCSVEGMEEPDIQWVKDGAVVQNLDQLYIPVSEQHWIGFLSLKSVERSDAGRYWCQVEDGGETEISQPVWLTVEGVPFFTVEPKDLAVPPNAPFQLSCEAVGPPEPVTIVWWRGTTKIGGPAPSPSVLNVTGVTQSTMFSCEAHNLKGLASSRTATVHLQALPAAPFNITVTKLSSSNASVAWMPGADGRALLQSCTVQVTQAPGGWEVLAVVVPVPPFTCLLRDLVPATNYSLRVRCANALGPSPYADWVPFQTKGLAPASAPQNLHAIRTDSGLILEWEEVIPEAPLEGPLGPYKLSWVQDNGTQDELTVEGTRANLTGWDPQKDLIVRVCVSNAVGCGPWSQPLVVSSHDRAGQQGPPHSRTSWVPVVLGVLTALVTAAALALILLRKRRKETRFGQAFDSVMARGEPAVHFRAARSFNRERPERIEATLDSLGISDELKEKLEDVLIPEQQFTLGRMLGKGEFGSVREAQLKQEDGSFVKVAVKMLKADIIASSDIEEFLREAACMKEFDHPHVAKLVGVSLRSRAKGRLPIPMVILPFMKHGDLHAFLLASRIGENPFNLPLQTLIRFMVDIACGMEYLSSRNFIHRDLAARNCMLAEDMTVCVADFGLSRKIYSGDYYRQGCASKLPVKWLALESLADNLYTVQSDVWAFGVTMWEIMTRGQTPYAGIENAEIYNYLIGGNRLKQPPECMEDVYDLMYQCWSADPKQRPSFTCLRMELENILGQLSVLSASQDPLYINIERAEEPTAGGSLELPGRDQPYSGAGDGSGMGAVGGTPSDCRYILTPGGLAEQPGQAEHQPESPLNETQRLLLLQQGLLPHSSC

Receptor tyrosine-protein kinase erbB-2, sequence (P04626 whole entry): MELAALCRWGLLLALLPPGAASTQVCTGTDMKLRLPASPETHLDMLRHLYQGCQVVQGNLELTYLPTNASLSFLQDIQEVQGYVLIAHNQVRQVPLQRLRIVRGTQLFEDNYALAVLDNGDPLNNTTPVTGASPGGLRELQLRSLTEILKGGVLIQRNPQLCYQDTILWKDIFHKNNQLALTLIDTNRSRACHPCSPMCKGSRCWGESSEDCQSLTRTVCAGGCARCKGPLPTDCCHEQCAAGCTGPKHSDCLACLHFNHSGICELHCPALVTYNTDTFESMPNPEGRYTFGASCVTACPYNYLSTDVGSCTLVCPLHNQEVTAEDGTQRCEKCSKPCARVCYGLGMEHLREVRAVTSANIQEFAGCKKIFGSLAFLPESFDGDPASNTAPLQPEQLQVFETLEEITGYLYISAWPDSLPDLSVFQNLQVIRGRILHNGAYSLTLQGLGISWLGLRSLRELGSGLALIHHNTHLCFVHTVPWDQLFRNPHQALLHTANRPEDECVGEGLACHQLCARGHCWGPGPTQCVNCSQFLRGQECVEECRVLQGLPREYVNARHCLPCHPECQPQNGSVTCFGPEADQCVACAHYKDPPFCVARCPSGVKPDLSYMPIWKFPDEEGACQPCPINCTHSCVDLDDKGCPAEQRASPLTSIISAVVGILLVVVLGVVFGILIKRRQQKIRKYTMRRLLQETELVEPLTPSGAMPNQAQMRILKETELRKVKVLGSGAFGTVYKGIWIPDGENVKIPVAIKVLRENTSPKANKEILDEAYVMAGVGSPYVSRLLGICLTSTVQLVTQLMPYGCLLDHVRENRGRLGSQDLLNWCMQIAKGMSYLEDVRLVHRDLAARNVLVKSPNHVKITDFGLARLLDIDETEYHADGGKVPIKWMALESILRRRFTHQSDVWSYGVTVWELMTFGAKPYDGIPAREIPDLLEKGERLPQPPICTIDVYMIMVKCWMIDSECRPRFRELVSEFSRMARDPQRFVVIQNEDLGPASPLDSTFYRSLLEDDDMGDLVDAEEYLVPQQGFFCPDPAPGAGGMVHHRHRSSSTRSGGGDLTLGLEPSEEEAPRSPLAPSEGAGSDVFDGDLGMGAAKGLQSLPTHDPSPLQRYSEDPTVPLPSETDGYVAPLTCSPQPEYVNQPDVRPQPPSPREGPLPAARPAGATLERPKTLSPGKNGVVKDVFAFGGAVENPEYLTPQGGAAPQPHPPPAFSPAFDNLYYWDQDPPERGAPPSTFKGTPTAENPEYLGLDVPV

| residual activity [1] [%] | residual activity [2] [%] | residual activity [3] [%] | residual activity [4] [%] | residual activity [5] [%] | residual activity [6] [%] | SMILES |
| --- | --- | --- | --- | --- | --- | --- |
| 103 | 104 | 93 | 77 | 98 | 100 | COc1cc2c(Oc3ccc(-c4nc5ccccc5s4)cc3)ncnc2cc1OCCCN1CCN(C)CC1 |
| 112 | 91 | 86 | 83 | 95 | 103 | COc1cc2c(Oc3ccc(-c4nc5ccccc5s4)cc3)ncnc2cc1OCCCN1CCCC1 |
| 97 | 93 | 86 | 83 | 99 | 103 | COc1cc2c(Oc3ccc(-c4nc5ccccc5s4)cc3F)ncnc2cc1OCCCN1CCN(C)CC1 |
